Columns and labels:
[1] = system: erythrocytes; experiment: Haemolysis assay for saponins; conditions: substantially pure samples
Procedure: Fresh blood from guinea pigs is washed with phosphate buffered saline (PBS) 3 times in a desk-top centrifuge. After resuspension to the original volume the blood is further diluted 10 fold in PBS. • 2. 50 μl of this blood suspension is added to 800 μl of PBS containing two-fold dilutions of surfactant or saponin. • 3. After 8 hours the haemolysis is assessed visually or by measuring the optical density of the supernatant. The presence of a red supernatant, which absorbs light at 570 nm indicates the presence of haemolysis. • 4. The results are expressed as the concentration of the first saponin dilution at which hemolysis no longer occurs.
For the purposes of his invention the saponin adjuvant preparation is haemolytic if it lyses the erythrocytes at a concentration of less than 0.1%. As means of reference, substantially pure samples of QuilA, QS21, QS7.

[2] = system: Lipo-OspA; type: in vivo, Balb/c mice; conditions: 14 days after nasal boost with 5 μg lipo-OspA; 20 μg CpG 1001 and/or 5 μg QS21; compared with PBS
[3] = system: influenza virus; set-up: species or system Balb/c mice; conditions: mouse, in vivo

Compound | haemolytic saponin as defined in this assay [1] | intranasal boosting of systemic antibodies to Lipo-OspA (OspA specific IgG and LA2 titres) [2] | intranasal boosting of IgG or HAI antibodies to Flu strains [3]
C[C@@H]1CC[C@@]2(OC1)O[C@H]1[C@@H](O)[C@H]3[C@@H]4CC[C@H]5C[C@@H](O[C@@H]6O[C@H](CO)[C@H](O[C@@H]7O[C@H](CO)[C@@H](O)[C@H](O[C@@H]8OC[C@@H](O)[C@H](O)[C@H]8O)[C@H]7O[C@@H]7O[C@H](CO)[C@H](O)[C@H](O[C@@H]8O[C@H](CO)[C@@H](O)[C@H](O)[C@H]8O)[C@H]7O)[C@H](O)[C@H]6O)[C@H](O)C[C@]5(C)[C@H]4CC[C@]3(C)[C@H]1[C@@H]2C [Digitonin] | haemolytic |  | 
CC1(C)[C@@H](O[C@H]2O[C@H](C(=O)O)[C@@H](O)[C@H](O)[C@H]2O[C@@H]2O[C@H](C(=O)O)[C@@H](O)[C@H](O)[C@H]2O)CC[C@]2(C)[C@H]3C(=O)C=C4[C@@H]5C[C@@](C)(C(=O)O)CC[C@]5(C)CC[C@@]4(C)[C@]3(C)CC[C@@H]12 [glycyrrhizic acid] | non haemolytic |  | 
QS21 | haemolytic | improve significantly | do not improve
β-escin | haemolytic |  | 

— patent publication US7399472B2, “Vaccines” (Smithkline Beecham Biologicals, priority 1999, dated 2008)
